Read-outs that look alike come from different tables or passages of the source. Marks after values point to notes of the source that are not given here.
How the values were obtained:
[1] = molecular target: T1, OX1 receptor (Homo sapiens, UniProt O43613); assay: Orexin target function test (Cisbio HTRF IP-one), CHO-K1-OX1 cells, antagonism of EC80 Orexin A; format: cell-based
T1 construct: host or cells: CHO-K1
T1 sequence (O43613 1-425): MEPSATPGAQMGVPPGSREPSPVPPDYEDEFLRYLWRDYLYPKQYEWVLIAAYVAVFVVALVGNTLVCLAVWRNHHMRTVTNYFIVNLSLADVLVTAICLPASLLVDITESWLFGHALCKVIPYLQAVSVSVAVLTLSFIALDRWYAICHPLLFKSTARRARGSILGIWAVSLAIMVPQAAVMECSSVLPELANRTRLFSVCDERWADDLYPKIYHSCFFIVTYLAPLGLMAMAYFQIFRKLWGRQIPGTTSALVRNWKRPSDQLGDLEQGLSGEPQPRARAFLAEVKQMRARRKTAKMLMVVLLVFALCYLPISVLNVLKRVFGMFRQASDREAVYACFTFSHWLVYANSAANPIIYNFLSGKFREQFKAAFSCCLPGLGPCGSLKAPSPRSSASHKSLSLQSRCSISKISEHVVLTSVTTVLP
Procedure: (§1) Using Cisbio HTRF IP-one kit to detect the changes in IP-one concentration of orexin receptor (OX1/OX2) signaling pathway by microplate reader, and calculating the IC50 value of the compound to evaluate the antagonistic effect of the compound on OX1 and OX2 receptors.
(§2) The cells were centrifuged at 1000 rpm for 5 minutes and the supernatant was discarded. 3 mL of PBS was added, and gently blown with a pipette to mix. After centrifugation at 1000 rpm for 5 minutes again, the supernatant was discarded. […] Based on the antagonistic effect values of the compound samples at different concentrations, the GraphPad Prism software was used to fit the orexin receptor antagonism curve of the compound samples and calculate the IC50.

[2] = in vivo; details: male, SD, rat, plasma
[3] = molecular target: T2, OX2 receptor (Homo sapiens, UniProt O43614); assay: Orexin target function test (Cisbio HTRF IP-one), CHO-K1-OX2 cells, antagonism of EC80 Orexin 2 receptor agonist; format: cell-based
T2 construct: host or cells: CHO-K1
T2 sequence (O43614 1-444): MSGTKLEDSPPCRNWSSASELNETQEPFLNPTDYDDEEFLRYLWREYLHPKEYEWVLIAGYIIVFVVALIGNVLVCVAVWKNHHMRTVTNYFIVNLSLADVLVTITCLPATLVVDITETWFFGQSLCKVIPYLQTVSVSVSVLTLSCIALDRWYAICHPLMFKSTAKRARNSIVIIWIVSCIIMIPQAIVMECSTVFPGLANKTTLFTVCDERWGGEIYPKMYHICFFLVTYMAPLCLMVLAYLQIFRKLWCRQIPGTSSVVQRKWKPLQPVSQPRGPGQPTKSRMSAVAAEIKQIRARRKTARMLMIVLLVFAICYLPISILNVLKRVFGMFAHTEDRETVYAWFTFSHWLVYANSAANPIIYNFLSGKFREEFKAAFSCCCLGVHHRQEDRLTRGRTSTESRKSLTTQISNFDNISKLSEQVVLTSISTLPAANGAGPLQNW
Procedure: as §1, §2

[4] = test system: SD rats; assay: Autonomous activity of rats; format: in vivo
Procedure: The animals were placed in the test box immediately after administration, and the activity distance of the animals within 60 minutes was recorded and analyzed using Top Scan Version 3.0. […] The experimental data were expressed by mean ± standard deviation (Mean ± SD), and SPSS 21.0 statistical software was used for one-way analysis of variance. The Dunnett's test was used for pairwise comparison, and p<0.05 was represented as *.

[5] = Blood-brain barrier permeability of the test substance in rats; details: male, SD, rat, oral, 30 mg/kg
Procedure: Twelve male SD rats were randomly divided into 4 groups, with 3 rats in each group. They were fasted for 8 hours before the test and had free access to water. The rats were intragastrically administered with 30 mg/kg of the test substance solution, and 0.3 mL of blood was collected from the jugular venous plexus of the rats before and 0.25 hours after administration. The rats were then anesthetized, the chest cavity was opened, the right atrial appendage was cut, and the blood was rapidly perfused from the back of the left ventricle. When the outflowing liquid was transparent and bloodless, the perfusion could be stopped, and the brain tissue was removed, dried with filter paper, weighed, and homogenized with an appropriate amount of physiological saline (1:4, v/v) to prepare a brain tissue homogenate. The whole blood sample was centrifuged at 4000 r/min for 10 min to separate the plasma.
The established LC-MS/MS method is used to detect the concentration of the test substance in plasma and brain tissue homogenate. The brain-to-blood ratio (Kb/p) of the test substance can be obtained by dividing the drug concentration in brain tissue by the drug concentration in plasma.

[6] = CHO-K1-OX1 cells, IP-one, read-out: hOXIR IC50
[7] = CHO-K1-OX2 cells, IP-one, read-out: hOX2R IC50
[8] = ratio of OX1R IC50 to OX2R IC50

COc1ccc(C(=O)N2CC3C=C(c4nc(C)c(F)c(C)n4)CC3C2)c(-n2nccn2)c1 (centres unmarked) [Compound 5, (5-(5-fluoro-4,6-dimethylpyrimidin-2-yl)-3,3a,4,6a-tetrahydrocyclopenta[c]pyrrol-2(1H)-yl)(4-methoxy-2-(2H-1,2,3-triazol-2-yl)phenyl)methanone]
IC50 [1]: 2800 nM | AUC(0-t) ([2]; iv, 1 mg/kg): 738 ng·h/mL | Cmax ([2]; iv, 1 mg/kg): 1600 ng/mL | AUC(0-t) ([2]; po, 30 mg/kg): 18500 ng·h/mL | Cmax ([2]; po, 30 mg/kg): 13800 ng/mL | bioavailability ([2]; po, 30 mg/kg): 83.6% | IC50 [3]: 16 nM | Selectivity [3]: 171 | Activity distance (mm) ([4]; rat, in vivo, 10 mg/kg): 44396.01±2185.62 mm | Inhibition rate(%) ([4]; rat, in vivo, 10 mg/kg): 37.50* % | Activity distance (mm) ([4]; rat, in vivo, 30 mg/kg): 32526.47±1464.45 mm | Inhibition rate(%) ([4]; rat, in vivo, 30 mg/kg): 45.79* %

COc1ccc(C(=O)N2CC3C=C(c4nc(CF)cnc4OC)CC3C2)c(-n2nccn2)c1 (centres unmarked) [Compound 59, [5-[6-(fluoromethyl)-3-methoxypyrazin-2-yl]-3,3a,4,6a-tetrahydrocyclopentyl[c]pyrrol-2(1H)-yl][4-methoxy-2-(2H-1,2,3-triazol-2-yl)phenyl]methanone]
IC50 [1, 6]: 1800 nM | IC50 [3, 7]: 17 nM | Selectivity [3, 8]: 106

Cc1cnc(C#N)c(C2=CC3CN(C(=O)c4ccc(F)cc4-n4nccn4)CC3C2)n1 (centres unmarked) [Compound 62, 3-[2-[4-fluoro-2-(2H-1,2,3-triazol-2-yl)benzoyl]-1,2,3,3a,4,6a-hexahydrocyclopenta[c]pyrrol-5-yl]-5-methylpyrazine-2-carbonitrile]
IC50 [1, 6]: 1650 nM | IC50 [3, 7]: 18 nM | Selectivity [3, 8]: 92

COc1nc(C2=CC3CN(C(=O)c4c(F)cccc4-n4nccn4)CC3C2)nc(C)c1F (centres unmarked) [Compound 8, (5-(5-fluoro-4-methoxy-6-methylpyrimidin-2-yl)-3,3a,4,6a-tetrahydrocyclopenta[c]pyrrol-2(1H)-yl)(2-fluoro-6-(2H-1,2,3-triazol-2-yl)phenyl)methanone]
IC50 [1, 6]: 1240 nM | AUC(0-t) ([2]; iv, 1 mg/kg): 808 ng·h/mL | Cmax ([2]; iv, 1 mg/kg): 3220 ng/mL | AUC(0-t) ([2]; po, 30 mg/kg): 16900 ng·h/mL | Cmax ([2]; po, 30 mg/kg): 13800 ng/mL | bioavailability ([2]; po, 30 mg/kg): 69.8% | IC50 [3, 7]: 12 nM | Selectivity [3, 8]: 100

Cc1nc(C2=CC3CN(C(=O)c4c(F)cccc4-n4nccn4)CC3C2)nc2c1COC2 (centres unmarked) [Compound 20, (2-fluoro-6-(2H-1,2,3-triazol-2-yl)phenyl)(5-(4-methyl-5,7-dihydrofuro[3,4-d]pyrimidin-2-yl)-3,3a,4,6a-tetrahydrocyclopenta[c]pyrrol-2(1H)-yl)methanone]
IC50 [1, 6]: 3170 nM | IC50 [3, 7]: 24.5 nM | Selectivity [3, 8]: 129 | Inhibition rate(%) ([4]; male SD rats, dose 10 mg/kg, versus blank vehicle group): 14.67% | Activity distance (mm) ([4]; male SD rats, dose 10 mg/kg, within 60 minutes, Mean ± SD): 60610.23±1657.26 mm | Inhibition rate(%) ([4]; male SD rats, dose 30 mg/kg, versus blank vehicle group): 24.24* % | Activity distance (mm) ([4]; male SD rats, dose 30 mg/kg, within 60 minutes, Mean ± SD): 53815.36±1401.21 mm | Inhibition rate(%) ([4]; male SD rats, dose 50 mg/kg, versus blank vehicle group): 31.17* % | Activity distance (mm) ([4]; male SD rats, dose 50 mg/kg, within 60 minutes, Mean ± SD): 48892.70±2164.16 mm

Cc1nc(C2=CC3CN(C(=O)c4c(F)cccc4-n4nccn4)CC3C2)nc2c1CCC2 (centres unmarked) [Compound 17, (2-fluoro-6-(2H-1,2,3-triazol-2-yl)phenyl)(5-(4-methyl-6,7-dihydro-5H-cyclopenta[d]pyrimidin-2-yl)-3,3a,4,6a-tetrahydrocyclopenta[c]pyrrol-2(1H)-yl)methanone]
IC50 [1]: 2880 nM | IC50 [3]: 22 nM | Selectivity [3, 8]: 131

CCOc1ncc(C)nc1C1=CC2CN(C(=O)c3ccc(OC)cc3-n3nccn3)CC2C1 (centres unmarked) [Compound 46, [5-(3-ethoxy-6-methylpyrazin-2-yl)-3,3a,4,6a-tetrahydrocyclopenta[c]pyrrol-2(1H)-yl][4-methoxy-2-(2H-1,2,3-triazol-2-yl)phenyl]methanone]
concentration at 0.25 h ([5]; brain): 210 ng/g | Kp at 0.25 h ([5]; brain/plasma): 0.43 | concentration at 0.25 h ([5]; plasma): 485 ng/mL

Reference: patent EP4635949A1 (Jiangsu NHWA Pharmaceutical Co., Ltd, priority 2022, dated 2024)
